Data from ChEMBL document CHEMBL1145700, “Pyraxinine, a Novel Nitrogenous Compound from the Marine Sponge Cymbastela cantharella” (J Nat Prod, 1997).

Experiment: Inhibition of LPS-induced macrophagic NOS at 100 uM

inhibition: 50%
SMILES: N=C(N)Nc1cccnc1
